Measured values from ChEMBL document CHEMBL3885881, “DrugMatrix”.

Organism: Rattus norvegicus
Experiment: DrugMatrix - Regimen: Daily Repeat
Format: toxicity, organism-based, Sprague-Dawley
Set-up: regimen Daily Repeat, gender Male, age 6-8 weeks
Settings: in vivo, iv, vehicle 100 % SALINE; for ABSOLUTE BASOPHIL / ABSOLUTE EOSINOPHIL / ABSOLUTE LYMPHOCYTE / ABSOLUTE MONOCYTE / ABSOLUTE SEGMENTED NEUTROPHIL / BASOPHIL / EOSINOPHIL / ERYTHROCYTE COUNT / HEMATOCRIT / HEMOGLOBIN / LEUKOCYTE COUNT / LYMPHOCYTE / MEAN CORPUSCULAR HEMOGLOBIN / MEAN CORPUSCULAR HEMOGLOBIN CONCENTRATION / MEAN CORPUSCULAR VOLUME / MONOCYTE / NEUTROPHIL / NUCLEATED RED BLOOD CELLS / PLATELET COUNT: tissue Blood; for ALANINE AMINOTRANSFERASE / ALBUMIN / ALKALINE PHOSPHATASE / ASPARTATE AMINOTRANSFERASE / BLOOD UREA NITROGEN / CARBON DIOXIDE / CHLORIDE / CHOLESTEROL / CREATINE PHOSPHOKINASE / CREATININE / GLUCOSE / LACTATE DEHYDROGENASE / LIPASE / PHOSPHORUS / POTASSIUM / SODIUM / TOTAL BILIRUBIN / TOTAL PROTEIN / URIC ACID: tissue Plasma
[1] = 0 mg/kg, 72 h, dose level Control, time 3 day
[2] = 0 mg/kg, 120 h, dose level Control, time 5 day
[3] = 200 mg/kg, 72 h, dose level Low, time 3 day

## CC1(C)S[C@@H]2[C@H](NC(=O)[C@H](NC(=O)N3CCNC3=O)c3ccccc3)C(=O)N2[C@H]1C(=O)O [AZLOCILLIN]
[1]
  ABSOLUTE BASOPHIL: 0 CELLS/uL
  ABSOLUTE EOSINOPHIL: 15.33 CELLS/uL
  ABSOLUTE LYMPHOCYTE: 9513.5 CELLS/uL
  ABSOLUTE MONOCYTE: 94.67 CELLS/uL
  ABSOLUTE SEGMENTED NEUTROPHIL: 709.83 CELLS/uL
  BASOPHIL: 0%
  EOSINOPHIL: 0.17%
  ERYTHROCYTE COUNT: 5.63 x10E6/uL
  HEMATOCRIT: 34.63%
  HEMOGLOBIN: 13.6 G/DL
  LEUKOCYTE COUNT: 10.33 x10E3/uL
  LYMPHOCYTE: 92%
  MEAN CORPUSCULAR HEMOGLOBIN: 24.17 pg
  MEAN CORPUSCULAR HEMOGLOBIN CONCENTRATION: 39.28 G/DL
  MEAN CORPUSCULAR VOLUME: 61.57 fL
  MONOCYTE: 0.83%
  NEUTROPHIL: 7%
  NUCLEATED RED BLOOD CELLS: 0 /100WBC
  PLATELET COUNT: 903.17 x10E3/uL
  ALANINE AMINOTRANSFERASE: 49.33 u/L
  ALBUMIN: 4.27 G/DL
  ALKALINE PHOSPHATASE: 400.83 u/L
  ASPARTATE AMINOTRANSFERASE: 77.5 u/L
  BLOOD UREA NITROGEN: 16.33 mg/dL
  CARBON DIOXIDE: 29.33 mmol/L
  CHLORIDE: 99.67 MEQ/L
  CHOLESTEROL: 66.67 mg/dL
  CREATINE PHOSPHOKINASE: 275.33 u/L
  CREATININE: 0.18 mg/dL
  GLUCOSE: 163.83 mg/dL
  LACTATE DEHYDROGENASE: 125.33 u/L
  LIPASE: 10 u/L
  PHOSPHORUS: 12.12 mg/dL
  POTASSIUM: 6.68 MEQ/L
  SODIUM: 144.02 MEQ/L
  TOTAL BILIRUBIN: 0.18 mg/dL
  TOTAL PROTEIN: 5.87 G/DL
  URIC ACID: 1.63 mg/dL
[2]
  ABSOLUTE BASOPHIL: 0 CELLS/uL
  ABSOLUTE EOSINOPHIL: 48.83 CELLS/uL
  ABSOLUTE LYMPHOCYTE: 14562 CELLS/uL
  ABSOLUTE MONOCYTE: 138.67 CELLS/uL
  ABSOLUTE SEGMENTED NEUTROPHIL: 1733.83 CELLS/uL
  BASOPHIL: 0%
  EOSINOPHIL: 0.33%
  ERYTHROCYTE COUNT: 5.89 x10E6/uL
  HEMATOCRIT: 36.7%
  HEMOGLOBIN: 14.42 G/DL
  LEUKOCYTE COUNT: 16.48 x10E3/uL
  LYMPHOCYTE: 88.83%
  MEAN CORPUSCULAR HEMOGLOBIN: 24.52 pg
  MEAN CORPUSCULAR HEMOGLOBIN CONCENTRATION: 39.3 G/DL
  MEAN CORPUSCULAR VOLUME: 62.37 fL
  MONOCYTE: 0.67%
  NEUTROPHIL: 10.17%
  NUCLEATED RED BLOOD CELLS: 0 /100WBC
  PLATELET COUNT: 1076.5 x10E3/uL
  ALANINE AMINOTRANSFERASE: 44.67 u/L
  ALBUMIN: 4.23 G/DL
  ALKALINE PHOSPHATASE: 357.33 u/L
  ASPARTATE AMINOTRANSFERASE: 84.83 u/L
  BLOOD UREA NITROGEN: 15.5 mg/dL
  CARBON DIOXIDE: 27 mmol/L
  CHLORIDE: 99.5 MEQ/L
  CHOLESTEROL: 63.67 mg/dL
  CREATINE PHOSPHOKINASE: 331.33 u/L
  CREATININE: 0.18 mg/dL
  GLUCOSE: 167.33 mg/dL
  LACTATE DEHYDROGENASE: 320.17 u/L
  LIPASE: 9.17 u/L
  PHOSPHORUS: 12.05 mg/dL
  POTASSIUM: 6.54 MEQ/L
  SODIUM: 143.02 MEQ/L
  TOTAL BILIRUBIN: 0.2 mg/dL
  TOTAL PROTEIN: 6.23 G/DL
  URIC ACID: 2.07 mg/dL
[3]
  ABSOLUTE BASOPHIL: 0 CELLS/uL
  ABSOLUTE EOSINOPHIL: 0 CELLS/uL
  ABSOLUTE LYMPHOCYTE: 12492.33 CELLS/uL
  ABSOLUTE MONOCYTE: 142.67 CELLS/uL
  ABSOLUTE SEGMENTED NEUTROPHIL: 1631.67 CELLS/uL
  BASOPHIL: 0%
  EOSINOPHIL: 0%
  ERYTHROCYTE COUNT: 5.71 x10E6/uL
  HEMATOCRIT: 37.53%
  HEMOGLOBIN: 14.67 G/DL
  LEUKOCYTE COUNT: 14.27 x10E3/uL
  LYMPHOCYTE: 87.67%
  MEAN CORPUSCULAR HEMOGLOBIN: 25.73 pg
  MEAN CORPUSCULAR HEMOGLOBIN CONCENTRATION: 39.1 G/DL
  MEAN CORPUSCULAR VOLUME: 65.8 fL
  MONOCYTE: 1%
  NEUTROPHIL: 11.33%
  NUCLEATED RED BLOOD CELLS: 0 /100WBC
  PLATELET COUNT: 1015.67 x10E3/uL
  ALANINE AMINOTRANSFERASE: 70.67 u/L
  ALBUMIN: 4.47 G/DL
  ALKALINE PHOSPHATASE: 482 u/L
  ASPARTATE AMINOTRANSFERASE: 112.67 u/L
  BLOOD UREA NITROGEN: 16.67 mg/dL
  CARBON DIOXIDE: 27.33 mmol/L
  CHLORIDE: 102.33 MEQ/L
  CHOLESTEROL: 82.67 mg/dL
  CREATINE PHOSPHOKINASE: 554 u/L
  CREATININE: 0.22 mg/dL
  GLUCOSE: 148 mg/dL
  LACTATE DEHYDROGENASE: 194.33 u/L
  LIPASE: 10 u/L
  PHOSPHORUS: 11.97 mg/dL
  POTASSIUM: 7.02 MEQ/L
  SODIUM: 145.3 MEQ/L
  TOTAL BILIRUBIN: 0.23 mg/dL
  TOTAL PROTEIN: 5.97 G/DL
  URIC ACID: 1.67 mg/dL
